In publication PMC9245008 (ACS chemical biology, 2022):

What was measured:
CIA mouse model = conditions: 50 mg/kg IP; cited from earlier work
TAK1 = molecular target: T1, TAK1 (Homo sapiens, UniProt O43318); experiment: Potency of takinib analogues against TAK1; format: biochemical
T1 sequence (O43318 1-303 limits assumed): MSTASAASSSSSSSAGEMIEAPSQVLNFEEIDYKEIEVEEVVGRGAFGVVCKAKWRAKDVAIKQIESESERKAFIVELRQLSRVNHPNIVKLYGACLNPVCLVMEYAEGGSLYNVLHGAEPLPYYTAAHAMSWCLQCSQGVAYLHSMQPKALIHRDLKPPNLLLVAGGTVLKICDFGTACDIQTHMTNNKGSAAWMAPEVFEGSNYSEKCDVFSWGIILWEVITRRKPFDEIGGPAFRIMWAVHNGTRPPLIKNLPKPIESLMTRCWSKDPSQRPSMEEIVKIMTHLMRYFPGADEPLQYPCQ

IRAK4 [1] = molecular target: T2, IRAK4 (Homo sapiens, UniProt Q9NWZ3); experiment: Potency of takinib analogues against IRAK4; format: biochemical; conditions: IRAK4 IC50 over TAK1 IC50
T2 sequence (Q9NWZ3 1-460): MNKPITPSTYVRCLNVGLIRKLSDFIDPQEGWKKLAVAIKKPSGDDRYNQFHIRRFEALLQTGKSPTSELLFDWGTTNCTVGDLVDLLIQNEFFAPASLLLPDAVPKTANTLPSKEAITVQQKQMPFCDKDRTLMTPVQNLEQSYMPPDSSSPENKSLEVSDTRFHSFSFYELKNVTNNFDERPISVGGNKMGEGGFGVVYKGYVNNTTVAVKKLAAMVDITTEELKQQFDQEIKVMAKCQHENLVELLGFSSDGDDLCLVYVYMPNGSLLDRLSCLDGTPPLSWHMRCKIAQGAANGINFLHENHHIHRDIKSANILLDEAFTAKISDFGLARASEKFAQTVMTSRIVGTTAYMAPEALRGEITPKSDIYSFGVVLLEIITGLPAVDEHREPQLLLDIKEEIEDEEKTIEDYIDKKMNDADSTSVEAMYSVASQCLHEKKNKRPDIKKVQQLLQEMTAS

IRAK4 [2] = molecular target: T2, IRAK4; conditions: cited from earlier work

CCCn1c(=NC(=O)c2cccc(C(N)=O)c2)[nH]c2ccccc21 [Takinib, N-(1-propyl-1,3-dihydro-2H-benzo[d]imidazol-2-ylidene)isophthalamide]
reduction of mean clinical score (CIA mouse model): ~ 32%
IC50 (TAK1): 9 nM
Ratio (IRAK4 [1]): 13
IRAK4 less potently inhibited than TAK1 (IRAK4 [2]): 13 fold
IC50 (IRAK4 [2]; read-out: IRAK4 IC50, two independent kinome wide screens): ~120 nM
